Tests used:
[1] = test system: L. mexicana promastigotes; experiment: Metabolic inhibition of Leishmania mexicana promastigotes, fluorometric analysis with resazurin; type: cell-based; details: for SI (CC50/IC50) L. mexicana: CC50 macrophages J774 / IC50 L. mexicana promastigotes; for IC50: Leishmania mexicana, 48 h, read-out: L. mexicana Promastigotes IC50, promastigotes, 24 h + 24 h resazurin, 27 °C, confidence interval (Probit) in parentheses, triplicate; for activity on L. mexicana (in words): promastigotes, in vitro
Experimental: A promastigote culture of L. mexicana was harvested in the stationary phase after 7 days of growth in culture. To each well of a sterile 96-well microplate, 5 × 10^5 promastigotes and the compound to be assessed (or the reference drug) were added to a final volume of 100 μL in RPMI culture medium supplemented with 10% SFB and 1% ampicillin/streptomycin. Each compound was examined at different concentrations, obtained by serial two-fold dilutions starting from 50 μg/mL. […] Promastigotes with 0.5% DMSO (at the vehicle concentration of the greatest dilution of the compound) served as the positive viability control and amphotericin B at a final concentration of 5 μg/mL served as the negative viability control. Each condition was assayed in triplicate.
After 24 h of incubation, 10 μL of 0.01% resazurin was added to each of the wells and incubation continued for another 24 h under the same conditions. The plate was read via a fluorometer (Spectramax M3, Molecular Devices, LLC, San Jose, CA, USA) at 544 nm excitation and 590 nm emission. Each treated well was compared to the positive viability control, and metabolic inhibition was expressed as a percentage. The IC50 value was determined with the Probit statistical tool version 4.1 [31, 32, 33].
Resazurin is a blue, permeable, and non-fluorescent compound. Upon entering cells, it is reduced to resorufin due to the reducing environment of the cytosol in living cells. Resorufin is red and highly fluorescent. The number of living cells is proportional to the fluorescence intensity of resorufin [31].

[2] = test system: T. cruzi INC-5 epimastigotes; experiment: Metabolic inhibition of Trypanosoma cruzi INC-5 epimastigotes, colorimetric analysis with MTT; type: cell-based; details: for SI (CC50/IC50) T. cruzi: CC50 macrophages J774 / IC50 T. cruzi INC-5 epimastigotes; for IC50: Trypanosoma cruzi, 24 h, 24 h + 20 h MTT, 27 °C, confidence interval (Probit) in parentheses, triplicate; for IC50 / activity on T. cruzi (in words): epimastigotes; for activity on T. cruzi (in words): in vitro
Experimental: Epimastigotes of T. cruzi INC-5 were harvested after 7 days of growth in culture. […] The microplate was incubated in the dark at 27 °C for 24 h. Epimastigotes with 0.5% DMSO served as the positive viability control and the reference drugs nifurtimox ([…], Bayer, Germany) and benznidazole (Rochagan, Roche, Brazil) served as the negative viability control. Each condition was assayed in triplicate. Upon completion of the incubation time, 10 μL of MTT solution at 5 mg/mL was added to each well, and incubation continued in the dark at 27 °C for 20 h. Then, 100 μL of a solution containing 10% SDS and 0.01 M HCl was added to stop the reaction. […] The plates were read on a spectrophotometer (Spectramax Plus, Molecular Devices) at an absorbance of 570 nm. The result found in each well with a given concentration of the respective compound was compared to the positive viability control and the metabolic inhibition was expressed as a percentage. The IC50 was determined using the Probit statistical tool. MTT is a yellow, water-soluble compound. In living cells, […] is captured and reduced to its insoluble form (formazan, which is purple) by mitochondrial succinate dehydrogenase. The quantity of living cells is proportional to the amount of formazan produced.

[3] = Cytotoxic effect on macrophages, resazurin; type: cell-based, murine; details: mouse, J774A.1 macrophages; J774A.1 murine macrophages, 20 h + 4 h resazurin; confidence interval (Probit) in parentheses; triplicate; read-out: Macrophages J774 CC50
Experimental: (§1) The microplate was incubated at 37 °C with 5% CO2 and humidity for 24 h to allow for the formation of a cell monolayer with a confluence of 80%. Subsequently, a concentration–response evaluation was carried out. Briefly, one of the compounds at the corresponding concentration was placed in each well with macrophages. […] As the negative cytotoxicity control, cells were exposed to 1% DMSO. The microplate was incubated at 37 °C with 5% CO2 and humidity for 20 h. Afterwards, 10 μL of 0.01% resazurin was added and the microplate was incubated for 4 h. As mentioned above, the microplate was read via a fluorometer at 544 nm excitation and 590 nm emission. Each treated well was compared to the negative cytotoxicity control and the data were expressed as a percentage of metabolic inhibition. The Probit statistical tool was used to calculate the CC50.

J774A.1 macrophages = experiment: Cytotoxic effect on macrophages, resazurin; type: cell-based, murine; details: murine macrophage cell line
Experimental: as §1

With CCCCCCCCCOc1ccc(C2=NCCN2)cc1 [compound 31] the “SI (CC50/IC50) L. mexicana” value [1] was 92.56, the IC50 [1] was < 1 µg/mL and the “SI (CC50/IC50) T. cruzi” value [2] was 2.40. The IC50 [2] was 21 µg/mL, the CC50 [3] was 50.6 µg/mL and the melting point was 103 to 105 °C.
For CCCCOc1ccc(C2=NCCN2)cc1 [compound 26, 2-(4-Butyloxyphenyl)-4,5-dihydro-1H-imidazole], the “SI (CC50/IC50) L. mexicana” value [1] was >37.98, the IC50 [1] was 2.63 µg/mL and the IC50 [2] was 48.7 µg/mL. The CC50 [3] was > 100 µg/mL and the melting point was 122 to 123 °C.
With CCCCCCCCOc1ccc(C2=NCCN2)cc1 [compound 30] the “SI (CC50/IC50) L. mexicana” value [1] was 48.11, the “activity on L. mexicana (in words)” value [1] was “active” and the IC50 [2] was < 1 µg/mL. For the same compound, the “activity on T. cruzi (in words)” value [2] was “active”, the CC50 [3] was 9.72 µg/mL and the melting point was 102 to 104 °C.
In the case of CCCCCCCOc1ccc(C2=NCCN2)cc1 [compound 29, 8-Hepthyloxyphenyl-2-imidazoline], the “SI (CC50/IC50) L. mexicana” value [1] is reported as 106.21, the CC50 [3] is reported as 21.5 µg/mL and the melting point is reported as 100 to 102 °C.
For CCCOc1ccc(C2=NCCN2)cc1 [compound 24, 2-(4-Propyloxyphenyl)-4,5-dihydro-1H-imidazole], the melting point was 121 to 122 °C.
With CCCCCCOc1ccc(C2=NCCN2)cc1 [compound 28, 8-Hexyloxypheny-2-imidazoline] the “SI (CC50/IC50) L. mexicana” value [1] was 166.31, the “SI (CC50/IC50) T. cruzi” value [2] was 1.16 and the IC50 [2] was 25.1 µg/mL. It also gave a CC50 [3] of 29.2 µg/mL and a melting point of 133 to 135 °C.
For O=c1[nH]c2ccccc2nc1CBr [compound 38, 3-(Bromomethyl)quinoxalin-2(1H)-one], the IC50 [1] was > 50 µg/mL, the “activity on L. mexicana (in words)” value [1] was “no effect was detected” and the IC50 [2] was > 50 µg/mL. The “activity on T. cruzi (in words)” value [2] was “no effect was detected” and the melting point was 224 to 226 °C.
In the case of CCCCCCOc1ccc([C@@H](O)[C@@H](O)c2ccc(OCCCCCC)cc2)cc1 [compound 37, (1R,2S)-1,2-bis(4-hexyloxyphenyl)ethane-1,2-diol], the IC50 [1] is reported as > 50 µg/mL, the “activity on L. mexicana (in words)” value [1] is reported as “inactivity” and the IC50 [2] is reported as > 50 µg/mL. The “activity on T. cruzi (in words)” value [2] was “inactivity” and the melting point was 122 to 123 °C.
With CCOc1ccc(C2=NCCN2)cc1 [compound 23, 2-(4-Ethoxyphenyl)-4,5-dihydro-1H-imidazole] the “SI (CC50/IC50) L. mexicana” value [1] was >13.12, the IC50 [1] was 7.62 µg/mL and the IC50 [2] was > 50 µg/mL. For the same compound, the “activity on T. cruzi (in words)” value [2] was “inactive”, the CC50 [3] was > 100 µg/mL and the “cytotoxic effect on macrophages (in words)” value (J774A.1 macrophages) was “least cytotoxic effect”. For the same compound, the melting point was 180 to 182 °C.
CC(C)Oc1ccc(C2=NCCN2)cc1 [compound 25, 2-(4-iso-propyloxyphenyl)-4,5-dihydro-1H-imidazole] showed a melting point of 151 to 153 °C.
For CCCCCOc1ccc(C2=NCCN2)cc1 [compound 27, 8-Penthyloxyphenil-2-imidazoline], the “SI (CC50/IC50) L. mexicana” value [1] was 88.28, the IC50 [1] was < 1 µg/mL and the “SI (CC50/IC50) T. cruzi” value [2] was 1.90. It also gave an IC50 [2] of 37.5 µg/mL, a CC50 [3] of 71.3 µg/mL and a melting point of 129 to 131 °C.
With CC1CS(=O)(=O)CCN1/N=C/c1ccc([N+](=O)[O-])o1 (stereo not drawn) [Nfx, nifurtimox, reference compound] the “SI (CC50/IC50) T. cruzi” value [2] was 23.10, the IC50 [2] was 2.5 µg/mL and the CC50 [3] was 57.8 µg/mL.
With CCCCCCCCOc1ccc(-c2ncc[nH]2)cc1 [compound 35, 8-Octyloxyphenyl-2-imidazole] the “SI (CC50/IC50) L. mexicana” value [1] was 14.92, the IC50 [1] was 2.69 µg/mL and the “activity on L. mexicana (in words)” value [1] was “active”. For the same compound, the “activity on T. cruzi (in words)” value [2] was “active”, the CC50 [3] was 40.2 µg/mL and the melting point was 117 to 119 °C.
In the case of CCCCCCCCCOc1ccc(-c2ncc[nH]2)cc1 [compound 36, 8-Nonyloxyphenyl-2-imidazole], the “SI (CC50/IC50) L. mexicana” value [1] is reported as 28.53, the IC50 [1] is reported as 1.09 µg/mL and the “activity on L. mexicana (in words)” value [1] is reported as “active”. The IC50 [2] was < 1 µg/mL, the “activity on T. cruzi (in words)” value [2] was “active” and the CC50 [3] was 31.3 µg/mL.
In the case of C[C@@H]1[C@H](O)[C@@H](C)/C=C/C=C/C=C/C=C/C=C/C=C/C=C/[C@H](O[C@@H]2O[C@H](C)[C@@H](O)[C@H](N)[C@@H]2O)C[C@@H]2O[C@](O)(C[C@@H](O)C[C@@H](O)[C@H](O)CC[C@@H](O)C[C@@H](O)CC(=O)O[C@H]1C)C[C@H](O)[C@H]2C(=O)O [AmB, amphotericin, reference compound], the “SI (CC50/IC50) L. mexicana” value [1] is reported as 253.26, the IC50 [1] is reported as 0.19 µg/mL and the CC50 [3] is reported as 48.1 µg/mL.
For COc1ccc(C2=NCCN2)cc1 [compound 22, 2-(4-Methoxyphenyl)-4,5-dihydro-1H-imidazole], the “SI (CC50/IC50) L. mexicana” value [1] was >6.23, the IC50 [1] was 16 µg/mL and the IC50 [2] was > 50 µg/mL. The “activity on T. cruzi (in words)” value [2] was “inactive”, the CC50 [3] was > 100 µg/mL and the “cytotoxic effect on macrophages (in words)” value (J774A.1 macrophages) was “least cytotoxic effect”.
For O=C(Cn1ccnc1[N+](=O)[O-])NCc1ccccc1 [Bnz, benznidazole, reference compound], the “SI (CC50/IC50) T. cruzi” value [2] was 8.31, the IC50 [2] was 11 µg/mL and the CC50 [3] was 91.6 µg/mL.
With CCCCCCOc1ccc(-c2ncc[nH]2)cc1 [compound 33, 8-Hexyloxyphenyl-2-imidazole] the “SI (CC50/IC50) L. mexicana” value [1] was 25.21, the IC50 [1] was 3.4 µg/mL and the “activity on L. mexicana (in words)” value [1] was “active”. For the same compound, the IC50 [2] was < 10 µg/mL, the “activity on T. cruzi (in words)” value [2] was “active” and the CC50 [3] was 85.7 µg/mL. The melting point was 133 to 135 °C.

Reference: paper PMC11012064, “Synthesis of Antiprotozoal 2-(4-Alkyloxyphenyl)-Imidazolines and Imidazoles and Their Evaluation on Leishmania mexicana and Trypanosoma cruzi” (International Journal of Molecular Sciences, 2024)
